Where a name gives a salt, the structure may show the parent alone. Read-outs that look alike come from different tables or passages of the source.
Assays:
[1] = target: T1, [3H]haloperidol binding, rat striatal membranes (Rattus norvegicus, UniProt P61169); test: displacement of [3H]haloperidol from rat striatal membranes; settings: Table 1, read-out: Displacement [3H]Haloperidol striatum: approximate KI
T1 construct: striatal and limbic forebrain membranes; from tissue; host or cells: rat striatal membranes
Description: (§1) ^(f) Approximate KI (nM) for displacement of [3Hhaloperidol from rat
(§2) striatal and limbic forebrain membranes.

[2] = target: T2, [3H]haloperidol binding, rat limbic forebrain membranes (Rattus norvegicus, UniProt P61169); test: displacement of [3H]haloperidol from rat limbic forebrain membranes; settings: Table 1, read-out: Displacement [3H]Haloperidol limbic: approximate KI
T2 construct: striatal and limbic forebrain membranes; from tissue; host or cells: rat limbic forebrain membranes
Description: as §1, §2

[3] = tested on: apomorphineinduced gnawing behaviour; test: inhibition of apomorphine-induced gnawing behaviour in the rat (oral); assay type: in vivo
Description: | ^(b) Approximate oral ED50 value for inhibition of | apomorphineinduced gnawing behaviour in the rat (mg kg^-1) and | ^(b) Approximate oral ED50 value for inhibition of | apomorphineinduced gnawing behaviour in the rat (mg kg^-1) and […]

[4] = target: T3, dopamine sensitive adenylate cyclase of rat straitum (Rattus norvegicus, UniProt P18901); test: inhibition of dopamine sensitive adenylate cyclase of rat striatum; assay type: biochemical
T3 construct: adenylate cyclase of rat straitum; from tissue; host or cells: rat striatum

[5] = tested on: apomorphineinduced vomiting; test: inhibition of apomorphine-induced vomiting in the dog (oral); assay type: in vivo; settings: Canis lupus familiaris
Description: | ^(b) Approximate oral ED50 value for inhibition of | apomorphineinduced gnawing behaviour in the rat (mg kg^-1) and | vomiting in the dog (μg kg^-1) | ^(b) Approximate oral ED50 value for inhibition of | apomorphineinduced gnawing behaviour in the rat (mg kg^-1) and | vomiting in the dog (μg kg^-1)

[6] = approximate ED50, Table 2, read-out: Antiapomorphine rat: approximate oral ED50 for inhibition of apomorphine-induced gnawing
[7] = rat striatum, Table 1, read-out: Dopamine sensitive aden-cyclase: approximate KI
[8] = approximate ED50, Table 2, read-out: Antiapomorphine dog: approximate oral ED50 for inhibition of apomorphine-induced vomiting
[9] = approximate ED50, Table 1, read-out: Anti-apomorphine dog: approximate oral ED50 for inhibition of apomorphine-induced vomiting
[10] = approximate ED50, Table 1, read-out: Anti-apomorphine rat: approximate oral ED50 for inhibition of apomorphine-induced gnawing

T3 sequence (P18901 whole entry): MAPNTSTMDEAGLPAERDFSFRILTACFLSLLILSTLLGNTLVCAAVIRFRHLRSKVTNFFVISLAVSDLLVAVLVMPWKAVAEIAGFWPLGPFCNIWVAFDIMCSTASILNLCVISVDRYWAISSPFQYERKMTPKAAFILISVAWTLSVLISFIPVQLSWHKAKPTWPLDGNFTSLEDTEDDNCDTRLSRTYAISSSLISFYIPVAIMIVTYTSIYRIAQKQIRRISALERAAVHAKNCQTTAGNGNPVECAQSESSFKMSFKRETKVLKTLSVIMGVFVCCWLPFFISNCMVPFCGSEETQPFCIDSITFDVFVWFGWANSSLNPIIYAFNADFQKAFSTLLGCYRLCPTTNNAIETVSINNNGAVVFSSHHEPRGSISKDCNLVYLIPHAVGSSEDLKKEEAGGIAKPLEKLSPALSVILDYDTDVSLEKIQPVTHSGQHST
T2 sequence (P61169 whole entry): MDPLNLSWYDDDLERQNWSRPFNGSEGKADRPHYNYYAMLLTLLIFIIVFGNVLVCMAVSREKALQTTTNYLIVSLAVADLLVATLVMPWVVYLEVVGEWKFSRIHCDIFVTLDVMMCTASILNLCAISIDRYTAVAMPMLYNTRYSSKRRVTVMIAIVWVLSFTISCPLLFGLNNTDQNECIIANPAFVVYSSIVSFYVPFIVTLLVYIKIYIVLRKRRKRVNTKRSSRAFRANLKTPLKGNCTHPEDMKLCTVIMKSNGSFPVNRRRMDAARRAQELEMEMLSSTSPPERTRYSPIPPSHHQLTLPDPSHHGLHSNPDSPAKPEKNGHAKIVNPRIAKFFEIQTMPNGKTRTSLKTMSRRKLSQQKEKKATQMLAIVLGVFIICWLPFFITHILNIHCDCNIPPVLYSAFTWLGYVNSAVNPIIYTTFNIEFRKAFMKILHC
T1 sequence (P61169 whole entry): as above

| Structure (SMILES) | ED50 [3, 6] [mg/kg] | ED50 [5, 8] [mg/kg] | ED50 [5, 9] [mg/kg] | ED50 [3, 10] [mg/kg] | other results |
| --- | --- | --- | --- | --- | --- |
| COc1cc(N)c(Cl)cc1C(=O)NC1CCN(Cc2ccccc2)CC1 [Clebopride hydrochloride, reference compound] | 2.5 | 0.04 |  |  | Ki [1]: 25 nM; Ki [2]: 5 nM; Ki [4, 7]: 5 nM |
| CCOc1cc(N)c([N+](=O)[O-])cc1C(=O)NC1CCN(Cc2ccccc2)CC1 [EtO, NH2, NO2, H, phenyl, H, H, H, --, N-(1-benzylpiperid-4-yl)-2-ethoxy-4-amino-5-nitrobenzamide] |  |  | < 0.05 |  |  |
| COc1cc(N)c([N+](=O)[O-])cc1C(=O)NC1CCN(Cc2ccccc2)CC1 [MeO, NH2, NO2, H, phenyl, H, H, H, --, N-(1-Benzylpiperid-4-yl)-2-methoxy-4-amino-5-nitrobenzamide] |  |  | < 0.05 | 140 | Ki [1]: 20 nM; Ki [2]: 1 nM; Ki [4, 7]: 5 nM |
| COc1cc(N)c([N+](=O)[O-])cc1C(=O)NC1CCN(CCc2ccccc2)CC1 [MeO, NH2, NO2, H, phenyl, H, H, H, CH2, N-(1-phenethylpiperid-4-yl)-2-methoxy-4-amino-5-nitrobenzamide] |  |  | > 5 | 800 | Ki [1]: 10 nM; Ki [2]: 1 nM; Ki [4, 7]: 1 nM |
| CCN(CC)CCNC(=O)c1cc(Cl)c(N)cc1OC [Metoclopramide, reference compound] |  |  | 0.45 | 13.6 | Ki [4]: 60 nM |
| COc1cc(N)c([N+](=O)[O-])cc1C(=O)NC1CCN(Cc2ccc(Cl)cc2)CC1 [N-(1-p-chlorobenzylpiperid-4-yl)-2-methoxy-4-amino-5-nitrobenzamide] |  |  | < 0.05 |  |  |
| COc1cc(N)c([N+](=O)[O-])cc1C(=O)NC1CCN(Cc2ccc(C)cc2)CC1 [N-(1-p-methylbenzylpiperid-4-yl)-2-methoxy-4-amino-5-nitrobenzamide] |  |  | < 0.05 |  |  |
| CCN1CCCC1CNC(=O)c1cc(S(N)(=O)=O)ccc1OC (stereo not drawn) [Sulpiride, reference compound] |  |  | 0.141 | > 800 |  |
| COc1cc(N)c([N+](=O)[O-])cc1C(=O)NC1CCN(CC2=CCC=CC2)CC1 [compound 2, N-(1-Cyclohexa-1',4'-dienylmethylpiperid-4-yl)-2-methoxy-4-amino-5-nitrobenzamide] | 60 | < 0.05 |  |  |  |
| COc1cc(N)c([N+](=O)[O-])cc1C(=O)NC1CCN(CCC2=CCC=CC2)CC1 [compound 3, N-[1-(2-cyclohexa-1',4'-dienylethyl)piperid-4-yl]-2-methoxy-4-amino-5-nitrobenzamide] | > 300 | > 0.5 |  |  |  |
| CCOc1cc(N)c([N+](=O)[O-])cc1C(=O)NC1CCN(CC2=CCC=CC2)CC1 [compound 4, N-(1-cyclohexa-1',4'-dienylmethylpiperid-4-yl)-2-ethoxy-4-amino-5-nitrobenzamide] | 50 | < 0.05 |  |  |  |
| CCOc1cc(N)c([N+](=O)[O-])cc1C(=O)NC1CCN(CC2=CCC(C)=CC2)CC1 [compound 5, N-[1-(4-methylcyclohexa-1,4-dienyl)methylpiperid-4-yl]-2-ethoxy-4-amino-5-nitrobenzamide] | 40 | < 0.05 |  |  |  |
| COc1cc(N)c([N+](=O)[O-])cc1C(=O)NC1CCN(CC2=CCC(C)=CC2)CC1 [compound 6, N-[1-(4-methylcyclohexa-1,4-dienyl)methylpiperid-4-yl]-2-methoxy-4-amino-5-nitrobenzamide] | 35 | < 0.05 |  |  |  |

From patent US5026858A, “Piperidine derivative” (Walton S.A., priority 1976, dated 1991)
